# Measured values: patent US6610675B1 (priority 1980, dated 2003)
# Experiments:
# [1] = tested on: granulation tissue formation caused by implantation of cotton pellets; test: Granuloma formation test (local cotton pellet granuloma assay); format: in vivo, rat; conditions: for Relative potency (ED40) / Relative potency (ED60): chloromethyl 11β-hydroxy-17α-isopropoxycarbonyloxyandrost-4-en-3-one-17β-carboxylate = 1; for ED40: dose causing 40% inhibition of granulation tissue weight; for ED60: dose causing 60% inhibition of granulation tissue weight
# Experimental: The test compound was dissolved in acetone and aliquots of varying concentrations were injected into cotton pellets. The pellets were dried and then one pellet was implanted beneath the skin of each test rat. Six days later, the animals were sacrificed and the granulation tissue (granuloma) which formed in and around the implanted pellet was removed, dried and weighed. In addition, the thymi and adrenals were removed and weighed.
# thymus weight in rats = test: Thymus inhibition testing (subcutaneous administration); format: in vivo, rat; conditions: for TED50: dose required to achieve 50% inhibition of thymi weight
# Experimental: Several further studies were undertaken to determine the effects of selected compounds of the invention on thymi weights in rats when the drugs were systemically administered. In each of these studies, male Sprague-Dawley rats were used. […] On the fifth day (48 hours following the last treatment), the animals were sacrificed and the thymi weights were recorded. […] It is evident that the higher the inhibition of thymus activity at a given dose, the more toxic the compound is.
# [2] = Table XII, anti-inflammatory effect in cotton pellet granuloma
# [3] = Table IX, 3 mg/kg/day s.c., three days
# [4] = Table IX, 10 mg/kg/day s.c., three days
# [5] = Table IX, 30 mg/kg/day s.c., three days
# [6] = Table IX, 100 mg/kg/day s.c., three days
# [7] = Table XII, hydrocortisone 17-butyrate = 1
# [8] = Table XII, thymus inhibition effect, subcutaneously
# [9] = dose causing 50% inhibition of granulation tissue weight
# [10] = Table VII, 3 mg/kg/day s.c., three days
# [11] = Table VII, 10 mg/kg/day s.c., three days
# [12] = Table VII, 30 mg/kg/day s.c., three days
# [13] = Table VII, 100 mg/kg/day s.c., three days
# [14] = Table X, betamethasone 17-valerate = 1
# [15] = Table X, dose required to achieve 40% inhibition of thymi weight, subcutaneous
# [16] = Table VIII, 10 mg/kg/day s.c., three days
compound,measurement,setting,value
"COC(=O)O[C@]1(C(=O)OCCl)[C@H](C)C[C@H]2[C@@H]3CCC4=CC(=O)C=C[C@]4(C)[C@@]3(F)[C@@H](O)C[C@@]21C [chloromethyl 9α-fluoro-11β-hydroxy-17α-methoxycarbonyloxy-16α-methylandrosta-1,4-dien-3-one-17β-carboxylate]",ED50,[1]; [2],2.38 μg/pellet
same,Body weight gain,thymus weight in rats; [3],18.8 ± 1.4 g
same,Thymus wt.,thymus weight in rats; [3],426 ± 19 mg
same,Thymus wt. Decrease,thymus weight in rats; [3],0.0%
same,Body weight gain,thymus weight in rats; [4],13.8 ± 1.6 g
same,Thymus wt.,thymus weight in rats; [4],354 ± 8 mg
same,Thymus wt. Decrease,thymus weight in rats; [4],16.9%
same,Body weight gain,thymus weight in rats; [5],12.0 ± 0.8 g
same,Thymus wt.,thymus weight in rats; [5],282 ± 11 mg
same,Thymus wt. Decrease,thymus weight in rats; [5],33.8%
same,Body weight gain,thymus weight in rats; [6],9.8 ± 1.3 g
same,Thymus wt.,thymus weight in rats; [6],206 ± 15 mg
same,Thymus wt. Decrease,thymus weight in rats; [6],51.6%
same,Relative Potency (TED40),thymus weight in rats; [7],1/36
same,TED40,thymus weight in rats; [8],46.0 mg/kg
"CC(C)OC(=O)O[C@]1(C(=O)OCCl)CC[C@H]2[C@@H]3CCC4=CC(=O)C=C[C@]4(C)[C@H]3[C@@H](O)C[C@@]21C [chloromethyl 11β-hydroxy-17α-isopropoxycarbonyloxy-androsta-1,4-dien-3-one-17β-carboxylate]",Body wt. gain,"[1]; Table IV, 30 μg/pellet",32.4 ± 1.2 g
same,Granulation tissue Dry wt.,"[1]; Table IV, 30 μg/pellet",51.0 ± 2.8 mg
same,Granulation tissue Dry wt. Inhibition,"[1]; Table IV, 30 μg/pellet",37.2%
same,Granulation tissue Wet wt.,"[1]; Table IV, 30 μg/pellet",432 ± 15 mg
same,Granulation tissue Wet wt. Inhibition,"[1]; Table IV, 30 μg/pellet",23.7%
same,Thymus wt.,"[1]; Table IV, 30 μg/pellet",523 ± 26 mg
same,Body wt. gain,"[1]; Table IV, 100 μg/pellet",35.0 ± 1.5 g
same,Granulation tissue Dry wt.,"[1]; Table IV, 100 μg/pellet",41.1 ± 5.8 mg
same,Granulation tissue Dry wt. Inhibition,"[1]; Table IV, 100 μg/pellet",49.4%
same,Granulation tissue Wet wt.,"[1]; Table IV, 100 μg/pellet",417 ± 27 mg
same,Granulation tissue Wet wt. Inhibition,"[1]; Table IV, 100 μg/pellet",26.3%
same,Thymus wt.,"[1]; Table IV, 100 μg/pellet",537 ± 31 mg
same,Body wt. gain,"[1]; Table IV, 300 μg/pellet",34.4 ± 1.1 g
same,Granulation tissue Dry wt.,"[1]; Table IV, 300 μg/pellet",38.1 ± 5.9 mg
same,Granulation tissue Dry wt. Inhibition,"[1]; Table IV, 300 μg/pellet",53.1%
same,Granulation tissue Wet wt.,"[1]; Table IV, 300 μg/pellet",369 ± 18 mg
same,Granulation tissue Wet wt. Inhibition,"[1]; Table IV, 300 μg/pellet",34.8%
same,Thymus wt.,"[1]; Table IV, 300 μg/pellet",525 ± 28 mg
same,Body wt. gain,"[1]; Table IV, 1000 μg/pellet",29.4 ± 1.5 g
same,Granulation tissue Dry wt.,"[1]; Table IV, 1000 μg/pellet",18.5 ± 2.4 mg
same,Granulation tissue Dry wt. Inhibition,"[1]; Table IV, 1000 μg/pellet",77.2%
same,Granulation tissue Wet wt.,"[1]; Table IV, 1000 μg/pellet",289 ± 12 mg
same,Granulation tissue Wet wt. Inhibition,"[1]; Table IV, 1000 μg/pellet",48.9%
same,Thymus wt.,"[1]; Table IV, 1000 μg/pellet",423 ± 26 mg
same,ED50,[1]; [2],119 μg/pellet
same,Relative potency (ED40),[1],6.5
same,Relative potency (ED60),[1],2.3
same,ED40,[1],47 μg/pellet
same,ED50,[1]; [9],119 μg/pellet
same,ED60,[1],301 μg/pellet
same,Body weight gain,thymus weight in rats; [10],9.0 ± 0.9 g
same,Thymus,thymus weight in rats; [10],377 ± 16 mg
same,Thymus Inhibition,thymus weight in rats; [10],20.0%
same,Body weight gain,thymus weight in rats; [11],6.2 ± 0.7 g
same,Thymus,thymus weight in rats; [11],312 ± 23 mg
same,Thymus Inhibition,thymus weight in rats; [11],33.8%
same,Body weight gain,thymus weight in rats; [12],4.8 ± 1.4 g
same,Thymus,thymus weight in rats; [12],257 ± 24 mg
same,Thymus Inhibition,thymus weight in rats; [12],45.4%
same,Body weight gain,thymus weight in rats; [13],0.3 ± 1.6 g
same,Thymus,thymus weight in rats; [13],161 ± 19 mg
same,Thymus Inhibition,thymus weight in rats; [13],65.8%
same,Relative Potency (TED40),thymus weight in rats; [14],0.02
same,Relative Potency (TED50),thymus weight in rats; [14],0.02
same,TED40,thymus weight in rats; [15],16.2 mg
same,TED50,"thymus weight in rats; Table X, subcutaneous",35.3 mg
same,Relative Potency (TED40),thymus weight in rats; [7],1/12
same,TED40,thymus weight in rats; [8],16.2 mg/kg
CC(C)OC(=O)O[C@]1(C(=O)OCCl)CC[C@H]2[C@@H]3CCC4=CC(=O)CC[C@]4(C)[C@H]3[C@@H](O)C[C@@]21C [chloromethyl 11β-hydroxy-17α-isopropoxycarbonyloxyandrost-4-en-3-one-17β-carboxylate],Body wt. gain,"[1]; Table IV, 100 μg/pellet",34.9 ± 2.7 g
same,Granulation tissue Dry wt.,"[1]; Table IV, 100 μg/pellet",70.0 ± 6.0 mg
same,Granulation tissue Dry wt. Inhibition,"[1]; Table IV, 100 μg/pellet",13.8%
same,Granulation tissue Wet wt.,"[1]; Table IV, 100 μg/pellet",485 ± 36 mg
same,Granulation tissue Wet wt. Inhibition,"[1]; Table IV, 100 μg/pellet",14.3%
same,Thymus wt.,"[1]; Table IV, 100 μg/pellet",452 ± 29 mg
same,Body wt. gain,"[1]; Table IV, 300 μg/pellet",33.9 ± 1.6 g
same,Granulation tissue Dry wt.,"[1]; Table IV, 300 μg/pellet",50.9 ± 2.8 mg
same,Granulation tissue Dry wt. Inhibition,"[1]; Table IV, 300 μg/pellet",37.3%
same,Granulation tissue Wet wt.,"[1]; Table IV, 300 μg/pellet",431 ± 20 mg
same,Granulation tissue Wet wt. Inhibition,"[1]; Table IV, 300 μg/pellet",23.9%
same,Thymus wt.,"[1]; Table IV, 300 μg/pellet",469 ± 25 mg
same,Body wt. gain,"[1]; Table IV, 1000 μg/pellet",34.0 ± 2.6 g
same,Granulation tissue Dry wt.,"[1]; Table IV, 1000 μg/pellet",24.1 ± 2.7 mg
same,Granulation tissue Dry wt. Inhibition,"[1]; Table IV, 1000 μg/pellet",70.3%
same,Granulation tissue Wet wt.,"[1]; Table IV, 1000 μg/pellet",305 ± 16 mg
same,Granulation tissue Wet wt. Inhibition,"[1]; Table IV, 1000 μg/pellet",46.1%
same,Thymus wt.,"[1]; Table IV, 1000 μg/pellet",464 ± 30 mg
same,Body wt. gain,"[1]; Table IV, 3000 μg/pellet",32.4 ± 2.3 g
same,Granulation tissue Dry wt.,"[1]; Table IV, 3000 μg/pellet",20.3 ± 1.3 mg
same,Granulation tissue Dry wt. Inhibition,"[1]; Table IV, 3000 μg/pellet",75.0%
same,Granulation tissue Wet wt.,"[1]; Table IV, 3000 μg/pellet",292 ± 7 mg
same,Granulation tissue Wet wt. Inhibition,"[1]; Table IV, 3000 μg/pellet",48.4%
same,Thymus wt.,"[1]; Table IV, 3000 μg/pellet",459 ± 24 mg
same,ED50,[1]; [2],460 μg/pellet
same,Relative potency (ED40),[1],1
same,Relative potency (ED60),[1],1
same,ED40,[1],307 μg/pellet
same,ED50,[1]; [9],460 μg/pellet
same,ED60,[1],690 μg/pellet
same,Body weight gain,thymus weight in rats; [10],14.7 ± 0.6 g
same,Thymus,thymus weight in rats; [10],439 ± 18 mg
same,Thymus Inhibition,thymus weight in rats; [10],6.8%
same,Body weight gain,thymus weight in rats; [11],10.2 ± 0.7 g
same,Thymus,thymus weight in rats; [11],386 ± 17 mg
same,Thymus Inhibition,thymus weight in rats; [11],18.0%
same,Body weight gain,thymus weight in rats; [12],6.8 ± 2.1 g
same,Thymus,thymus weight in rats; [12],291 ± 22 mg
same,Thymus Inhibition,thymus weight in rats; [12],38.2%
same,Body weight gain,thymus weight in rats; [13],2.8 ± 1.8 g
same,Thymus,thymus weight in rats; [13],185 ± 17 mg
same,Thymus Inhibition,thymus weight in rats; [13],60.7%
same,Relative Potency (TED40),thymus weight in rats; [14],0.01
same,Relative Potency (TED50),thymus weight in rats; [14],0.01
same,TED40,thymus weight in rats; [15],31.0 mg
same,TED50,"thymus weight in rats; Table X, subcutaneous",58.5 mg
same,Relative Potency (TED40),thymus weight in rats; [7],1/24
same,TED40,thymus weight in rats; [8],31.0 mg/kg
"CCOC(=O)O[C@]1(C(=O)OCCl)[C@@H](C)C[C@H]2[C@@H]3CCC4=CC(=O)C=C[C@]4(C)[C@@]3(F)[C@@H](O)C[C@@]21C [chloromethyl 17α-ethoxycarbonyloxy-9α-fluoro-11β-hydroxy-16β-methylandrosta-1,4-dien-3-one-17β-carboxylate]",Body wt. gain,"[1]; Table V-a, 0.3 μg/pellet",32.5 ± 1.1 g
same,Granulation tissue Dry wt.,"[1]; Table V-a, 0.3 μg/pellet",61.8 ± 5.7 mg
same,Granulation tissue Dry wt. Inhibition,"[1]; Table V-a, 0.3 μg/pellet",22.8%
same,Granulation tissue Wet wt.,"[1]; Table V-a, 0.3 μg/pellet",499 ± 36 mg
same,Granulation tissue Wet wt. Inhibition,"[1]; Table V-a, 0.3 μg/pellet",5.0%
same,Thymus wt.,"[1]; Table V-a, 0.3 μg/pellet",501 ± 29 mg
same,Body wt. gain,"[1]; Table V-a, 1 μg/pellet",36.3 ± 0.9 g
same,Granulation tissue Dry wt.,"[1]; Table V-a, 1 μg/pellet",57.0 ± 6.2 mg
same,Granulation tissue Dry wt. Inhibition,"[1]; Table V-a, 1 μg/pellet",28.8%
same,Granulation tissue Wet wt.,"[1]; Table V-a, 1 μg/pellet",437 ± 24 mg
same,Granulation tissue Wet wt. Inhibition,"[1]; Table V-a, 1 μg/pellet",16.8%
same,Thymus wt.,"[1]; Table V-a, 1 μg/pellet",566 ± 31 mg
same,Body wt. gain,"[1]; Table V-a, 3 μg/pellet",33.8 ± 1.3 g
same,Granulation tissue Dry wt.,"[1]; Table V-a, 3 μg/pellet",47.5 ± 5.0 mg
same,Granulation tissue Dry wt. Inhibition,"[1]; Table V-a, 3 μg/pellet",40.7%
same,Granulation tissue Wet wt.,"[1]; Table V-a, 3 μg/pellet",422 ± 32 mg
same,Granulation tissue Wet wt. Inhibition,"[1]; Table V-a, 3 μg/pellet",19.6%
same,Thymus wt.,"[1]; Table V-a, 3 μg/pellet",500 ± 27 mg
same,Body wt. gain,"[1]; Table V-a, 10 μg/pellet",31.1 ± 1.7 g
same,Granulation tissue Dry wt.,"[1]; Table V-a, 10 μg/pellet",34.8 ± 5.5 mg
same,Granulation tissue Dry wt. Inhibition,"[1]; Table V-a, 10 μg/pellet",56.6%
same,Granulation tissue Wet wt.,"[1]; Table V-a, 10 μg/pellet",370 ± 21 mg
same,Granulation tissue Wet wt. Inhibition,"[1]; Table V-a, 10 μg/pellet",29.5%
same,Thymus wt.,"[1]; Table V-a, 10 μg/pellet",421 ± 30 mg
same,Relative potency (ED40),[1],133
same,Relative potency (ED60),[1],38
same,ED40,[1],2.31 μg/pellet
same,ED50,[1]; [9],6.45 μg/pellet
same,ED60,[1],18.01 μg/pellet
same,Body weight gain,thymus weight in rats; [16],2.4 ± 1.8 g
same,Thymus wt.,thymus weight in rats; [16],266 ± 20 mg
same,Thymus wt. Inhibition,thymus weight in rats; [16],51.6%
